# Like-named read-outs stand apart in the source and are kept apart here.
# Key:
# [1] = tested on: CD-1 mouse lungs; assay: In vivo transfection of CD-1 mice with i.v. lipoplex (pCMV-Luc), luciferase activity assay in organs; conditions: for Relative Activity of MMET Analogues-Cholesterol Liposomes: cationic lipid:cholesterol 1:1 mol/mol, in vivo transfection to the lungs, MMET = 100; for rank order of transfection activity in lungs: liposomes of pure cationic lipid, charge ratio 8:1 to 16:1, 12 hours after i.v.; for transfection level versus trimethylammonium counterparts (DOTMA, DOTAP): 4:1 +/− charge ratio, pure cationic lipid liposomes
# Experimental: Cationic liposomes of formulas (I-VI) were prepared from pure cationic lipids or as equimolar mixtures of a cationic lipid and neutral lipids, such as DOPE, or cholesterol, using extrusion or sonication methods. One hundred μmoles of a cationic lipid or one hundred μmoles each of a cationic lipid and a selected neutral lipid were dissolved in a round bottom flask. The organic solvent was then evaporated under vacuum at 45° C. to form a thin lipid film. The residual solvent was further removed under high vacuum for one hour. The lipid film was then suspended with 10 ml of endotoxin-free distilled water (Gibco, BRL, MD) at room temperature for one hour, and subsequently extruded using 0.8 μm, 0.4 μm and 0.2 μm pore size filters. The extruded multilammelar liposomes have sizes of 850 nm, 350 nm and 280 nm in diameter, respectively. Some of the extruded liposomes were further sonicated in a bath sonicator for 2-5 minutes to form unilamellar liposomes with a size of about 100 nm in diameter. The size of the liposomes were measured by 90° laser dynamic light scattering using a Zetamaster submicron particle analyzer.
# (§1) For transfection in vivo, normal CD-1 mouse was used as a model. The charge ration of lipid to DNA (±) was used throughout the study, assuming that 25 μg of DNA contains about 75 nmoles of negative charges, and one nmole of quaternary ammonium cationic lipid contains one nmole of positive charges. To prepare lipoplex for transfection, 25 μg or an indicated amounts of pCMV DNA was diluted in 100 μl of distilled water (endotoxin screened, Gibco). The diluted DNA solution was added to a polystyrene tube containing an indicated amount of cationic liposomes in 100 μl and was mixed immediately. The complexes were kept at + room temperature for 30 minutes before being administered to the animals via tail vein.
# Luciferase activity was measured in various organs, including lung, liver spleen, and heart from transfected animals, using a luciferase activity assay kit (Promega, Madison, Wis.) and a luminometer (Moonlight 3010). Organs were collected from the animals at 12 hours post transfection or at an indicated time after injection of lipoplex. About 0.2 g of liver were removed from the animal. One ml of 1× lysis buffer (Promega, Madison, Wis.), supplemented with 0.1% Triton-X100 was added to collected organs. Each organ was homogenized for 10-20 seconds using a handheld homogenizer (Dremel, Racine, Wis.) as it top speed (about 30,000 rpm). The samples were centrifuged in a microcentrifuge for three minutes. A 10 μL of the cleared supernatant, containing approximately 100-200 μg proteins, was measured for luciferase activity. Protein content in the supernatants was determined with BioRad dye reagent method, using albumin as a standard. The luciferase activities were normalized to the relative light unit per milligram of extracted protein.
# [2] = tested on: CD-1 mice; format: in vivo; conditions: for safety of lipoplex for CD-1 mice: 25 μg of DNA, pure cationic lipid liposomes, 1:16 charge ratio; for Number of animals died per group (n = 3): CD-1 mice (20 g), charge ratio 16:1+/−, counted after 48 h; for relative toxicity of liposome compositions: escalating doses of lipoplexes, groups of three animals, first 48 hours
# Experimental: as §1
# Table 2 below lists the number of animals that expired during the first 48 hours of the experiment period, when escalating doses of the lipoplexes were given to a group of three animals. Lipoplex containing 25 μg of DNA and DOTMA or MMET liposomes at 1:16 charge ratio or with a mixture of cholesterol-DOTMA, or cholesterol-MMET at 1:4 charge ratios appear to be quite safe for CD-1 mice. Higher charge ratios of lipid to DNA and high doses of lipoplex were required to reach a lethal dose. […] In general, MMET containing liposomes were less toxic than the ones containing DOTMA.
# [3] = tested on: CD-1 mice; conditions: mouse, in vivo
compound,measurement,setting,value
"CCCCCCCC/C=C\CCCCCCCCOCC[N+]1(CCOCCCCCCCC/C=C\CCCCCCCC)CCOCC1.[Cl-] [DODHEM, N,N-di-(2-oleyloxyethyl)-mopholinium chloride]",Relative Activity of MMET Analogues-Cholesterol Liposomes,[1],74.54
"CCCCCCCC/C=C\CCCCCCCC[N+]1(CCCCCCCC/C=C\CCCCCCCC)CCOCC1.[Cl-] [DOMor, N,N-dioleylmorpholinium chloride]",Relative Activity of MMET Analogues-Cholesterol Liposomes,[1],76.09
"CCCCCCCC/C=C\CCCCCCCC(=O)OCC(C[N+](C)(C)C)OC(=O)CCCCCCC/C=C\CCCCCCCC (centres unmarked) [DOTAP, 1,2-dioleoyl-3-trimethylammonium propane, reference compound]",Relative Activity of MMET Analogues-Cholesterol Liposomes,[1],28.14
same,rank order of transfection activity in lungs,[1],MMET≧DOTMA>MMES>DOTAP>LADOP
"CCCCCCCC/C=C\CCCCCCCCOCC(C[N+](C)(C)C)OCCCCCCCC/C=C\CCCCCCCC.[Cl-] (centres unmarked) [DOTMA, 1,2,-dioleyl-3-N,N,N-trimethyl amino propane chloride, reference compound]",rank order of transfection activity in lungs,[1],MMET≧DOTMA>MMES>DOTAP>LADOP
same,safety of lipoplex for CD-1 mice,[2],quite safe
same,Number of animals died per group (n = 3),[2]; DNA dosage 25 ug,(0)
same,Number of animals died per group (n = 3),[2]; DNA dosage 30 ug,(2)
same,Number of animals died per group (n = 3),[2]; DNA dosage 45 ug,(3)
same,relative toxicity of liposome compositions,[2],somewhere in between
"CCCCCCCC/C=C\CCCCCCCC(=O)OCC(CNC(=O)[C@@H](N)CCCCN)OC(=O)CCCCCCC/C=C\CCCCCCCC (stereo partly drawn) [LADOP, N-[(2,3-dioleoyloxy)propyl]-L-lysinamide]",duration of transgene expression in lungs (disappearing by),"[1]; liposome/DNA complex delivered intravenously, after transfection",≤ 48 h
same,rank order of transfection activity in lungs,[1],MMET≧DOTMA>MMES>DOTAP>LADOP
same,gene expression after second intravenous transfection,[1]; second injection at 48 hours after the first injection,almost identical gene expression and duration
same,tolerance of repeated intravenous doses,[3],tolerated repeated intravenous doses of DNA/LADOP complex well
"CCCCCCCC/C=C\CCCCCCCC(=O)OCC(C[N+]1(C)CCOCC1)OC(=O)CCCCCCC/C=C\CCCCCCCC (centres unmarked) [MMES, N-3-methyl-1,2-dioleoyl-3-morpholinium propane]","transfection level versus trimethylammonium counterparts (DOTMA, DOTAP)",[1]; lungs,higher levels of transfection
same,Relative Activity of MMET Analogues-Cholesterol Liposomes,[1],48.72
same,rank order of transfection activity in lungs,[1],MMET≧DOTMA>MMES>DOTAP>LADOP
"CCCCCCCC/C=C\CCCCCCCC(=O)OCC(C[N+]1(C)CCCC1)OC(=O)CCCCCCC/C=C\CCCCCCCC (centres unmarked) [MPES, N-3-methyl-1,2-dioleoul-3-pyrrolinum propane]",Relative Activity of MMET Analogues-Cholesterol Liposomes,[1],1.87
"CCCCCCCC/C=C\CCCCCCCCOCC(C[N+]1(C)CCCC1)OCCCCCCCC/C=C\CCCCCCCC (centres unmarked) [MPET, -3-methyl-1,2-dioleyl-3-pyrrolinium propane]",Relative Activity of MMET Analogues-Cholesterol Liposomes,[1],55.49
"CCCCCCCC/C=C\CCCCCCCCOCC(CN1CCOCC1)OCCCCCCCC/C=C\CCCCCCCC (centres unmarked) [dioleyl morpholino propanediol, 1,2-dioleyl-N-3-morpholino propane]",in vivo transfection activity of MMET analogues (in words),"[1]; formulated with cholesterol at 1:1 mole ratios, lungs",only weak activity
"N-3-methyl-1,2-dioleyl-3-morpholinium propane chloride [MMET]","transfection level versus trimethylammonium counterparts (DOTMA, DOTAP)",[1]; lungs,higher levels of transfection
same,Relative Activity of MMET Analogues-Cholesterol Liposomes,[1],100
same,transfection activity versus prior art liposomes composed of DOTMA and/or DOTAP or DOTMA-cholesterol,"[1]; i.v. to mice, luciferase after 12 hours",much higher
same,rank order of transfection activity in lungs,[1],MMET≧DOTMA>MMES>DOTAP>LADOP
same,safety of lipoplex for CD-1 mice,[2],quite safe
same,Number of animals died per group (n = 3),[2]; DNA dosage 25 ug,(0)
same,Number of animals died per group (n = 3),[2]; DNA dosage 30 ug,(0)
same,Number of animals died per group (n = 3),[2]; DNA dosage 45 ug,(1)
same,relative toxicity of liposome compositions,[2],somewhere in between

# — patent publication US7067697B2, “Cationic liposomes for gene transfer” (priority 1998, dated 2006)
